Measured values reported in ChEMBL document CHEMBL1201862, “PubChem BioAssay data set” (2004).
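Values below derive from 48-hour exposures of cells grown in 96-well plates, with endpoints linearly interpolated between the two concentrations bracketing the appropriate inhibition level. Abbreviation: GI50, concentration required for 50% inhibition of growth.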 Activity calls are given as the source filed them. Rule as the data show it: active = GI50 up to about 1.1 µM and inactive = higher.

Experiments:
Experiment in all cases: NCI-60 cell line screen, 48 h
786-0 = tested on: 786-0
A498 = tested on: A498
A549 = tested on: A549
ACHN = tested on: ACHN
BT-549 = tested on: BT-549
CAKI-1 = tested on: CAKI-1
CCRF-CEM = tested on: CCRF-CEM
COLO 205 = tested on: COLO 205
DU-145 = tested on: DU-145
EKVX = tested on: EKVX
HCC 2998 = tested on: HCC 2998
HCT-116 = tested on: HCT-116
HCT-15 = tested on: HCT-15
HL-60 = tested on: HL-60
HOP-62 = tested on: HOP-62
HOP-92 = tested on: HOP-92
HT-29 = tested on: HT-29
Hs-578T = tested on: Hs-578T
IGROV-1 = tested on: IGROV-1
K562 = tested on: K562
KM12 = tested on: KM12
LOX IMVI = tested on: LOX IMVI
M14 = tested on: M14
MCF7 = tested on: MCF7
MDA-MB-231 = tested on: MDA-MB-231
MDA-MB-435 = tested on: MDA-MB-435
MDA-N = tested on: MDA-N
MOLT-4 = tested on: MOLT-4
Malme-3M = tested on: Malme-3M
NCI-H226 = tested on: NCI-H226
NCI-H23 = tested on: NCI-H23
NCI-H460 = tested on: NCI-H460
NCI-H522 = tested on: NCI-H522
NCI/ADR-RES = tested on: NCI/ADR-RES
OVCAR-3 = tested on: OVCAR-3
OVCAR-4 = tested on: OVCAR-4
OVCAR-5 = tested on: OVCAR-5
OVCAR-8 = tested on: OVCAR-8
PC-3 = tested on: PC-3
RXF 393 = tested on: RXF 393
SF-268 = tested on: SF-268
SF-295 = tested on: SF-295
SF-539 = tested on: SF-539
SK-MEL-28 = tested on: SK-MEL-28
SK-MEL-2 = tested on: SK-MEL-2
SK-MEL-5 = tested on: SK-MEL-5
SK-OV-3 = tested on: SK-OV-3
SN12C = tested on: SN12C
SNB-19 = tested on: SNB-19
SNB-75 = tested on: SNB-75
SR = tested on: SR
SW-620 = tested on: SW-620
T47D = tested on: T47D
TK-10 = tested on: TK-10
U-251 = tested on: U-251
UACC-257 = tested on: UACC-257
UACC-62 = tested on: UACC-62
UO-31 = tested on: UO-31

Measured: GI50

CCOC(=O)/C=C(\C(=O)OCC)n1ccc(=O)n(CC(=O)OCC)c1=O
active: CAKI-1 0.638 µM | CCRF-CEM 0.592 µM | HL-60 0.495 µM | NCI-H522 1 µM
1.83 µM: HCT-15
inactive: 786-0 1.82 µM | A498 17.7 µM | A549 17.2 µM | ACHN 1.64 µM | BT-549 11.7 µM | COLO 205 1.26 µM | DU-145 17.3 µM | EKVX 6.59 µM | HCC 2998 16 µM | HCT-116 1.77 µM | HOP-62 20.7 µM | HOP-92 1.45 µM | HT-29 5.9 µM | Hs-578T 20 µM | IGROV-1 6.82 µM | K562 1.68 µM | KM12 15.1 µM | LOX IMVI 2.11 µM | M14 2.09 µM | MCF7 3.16 µM | MDA-MB-231 6.12 µM | MDA-MB-435 5.85 µM | MDA-N 5.96 µM | MOLT-4 1.43 µM | Malme-3M 2.48 µM | NCI-H226 6.52 µM | NCI-H23 8.07 µM | NCI-H460 15.6 µM | NCI/ADR-RES 9.57 µM | OVCAR-3 3.96 µM | OVCAR-4 3.66 µM | OVCAR-5 4.95 µM | OVCAR-8 5.25 µM | PC-3 4.74 µM | RXF 393 1.26 µM | SF-268 13.2 µM | SF-295 17.9 µM | SF-539 16.6 µM | SK-MEL-28 6.25 µM | SK-MEL-2 14 µM | SK-MEL-5 13 µM | SK-OV-3 17.9 µM | SN12C 4.84 µM | SNB-19 19.3 µM | SNB-75 9.75 µM | SR 2.17 µM | SW-620 1.23 µM | T47D 2.44 µM | TK-10 2.57 µM | U-251 6.25 µM | UACC-257 11.6 µM | UACC-62 7.36 µM | UO-31 6.73 µM
